# Assay results from patent US8426449B2, “Aminoalkylphenyl antagonists of prostaglandin D2 receptors” (Panmira Pharmaceuticals, LLC, priority 2008, dated 2013).
# Target: T1, human DP2 receptor (Homo sapiens, UniProt Q9Y5Y4)
# T1 construct: expressed in transfected cells
# T1 sequence (Q9Y5Y4 1-395): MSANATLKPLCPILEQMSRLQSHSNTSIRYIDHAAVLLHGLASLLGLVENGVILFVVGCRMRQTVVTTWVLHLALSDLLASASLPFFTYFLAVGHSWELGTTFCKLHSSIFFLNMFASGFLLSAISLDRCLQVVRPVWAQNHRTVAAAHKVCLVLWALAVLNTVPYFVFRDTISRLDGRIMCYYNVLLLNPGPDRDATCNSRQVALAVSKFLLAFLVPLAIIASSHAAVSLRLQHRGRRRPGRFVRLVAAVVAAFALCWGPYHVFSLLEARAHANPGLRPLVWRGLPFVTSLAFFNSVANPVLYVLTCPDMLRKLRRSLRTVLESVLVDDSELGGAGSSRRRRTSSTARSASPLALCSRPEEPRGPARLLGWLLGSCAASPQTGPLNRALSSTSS
# Assay: DP2/CRTH2 radioligand binding assay using [3H]PGD2
# Details: hDP2 (CRTH2) binding assay, membranes of HEK293 cells expressing recombinant human DP2
# Procedure: The ability of a compound to bind to the human DP2 receptor is assessed via a radioligand binding assay using [^3H]PGD2. HEK293 cells stably expressing recombinant human DP2 are resuspended in 10 mM Hepes, 7.4 containing 1 mM DTT, lysed and centrifuged at 75,000×g to pellet the membranes. The membranes are resuspended in 10 mM Hepes, 7.4 containing 1 mM DTT and 10% glycerol to approximately 5 mg protein/ml. Membranes (2-10 μg protein/well) are incubated in 96-well plates with 1 nM [^3H]PGD2 and test compound in Assay Buffer (50 mM Hepes, 10 mM MnCl2, 1 mM EDTA, plus or minus 0.2% human serum albumin, pH 7.4) for 60 minutes at room temperature. The reactions are terminated by rapid filtration through Whatman GF/C glass fibre filter plates. The filter plates were pre-soaked in 0.33% polyethylenimine for 30 minutes at room temperature then washed in Wash Buffer (50 mM Hepes, 0.5 M NaCl pH 7.4) prior to harvesting. After harvesting, the filter plates are washed 3 times with 1 ml cold Wash Buffer then dried. Scintillant is then added to the plates and the radioactivity retained on the filters is determined on a Packard TopCount (Perkin Elmer). Specific binding is determined as total radioactive binding minus non-specific binding in the presence of 10 μM PGD2. IC50s were determined using GraphPad prism analysis of drug titration curves.
row,SMILES,IC50 [nM]
1,"COC(=O)N(Cc1cc(NS(C)(=O)=O)ccc1Oc1cccc(CC(=O)O)c1)[C@@H](C)Cc1ccccc1 [Compound 1-41, [3-(4-Methanesulfonylamino-2-{[methoxycarbonyl-((S)-1-methyl-2-phenyl-ethyl)amino]-methyl}-phenoxy)-phenyl]-acetic acid]",< 300
2,"COC(=O)N(Cc1cc(N(C)C(C)=O)ccc1Oc1cccc(CC(=O)O)c1)[C@@H](C)Cc1ccccc1 [Compound 1-39, [3-(4-(Acetyl-methyl-amino)-2-{[methoxycarbonyl-((S)-1-methyl-2-phenyl-ethyl)-amino]-methyl}-phenoxy)-phenyl]-acetic acid]",> 300
3,"CC(=O)N(Cc1cc(C(F)(F)F)ccc1Oc1cccc(CC(=O)O)c1)C1CCc2ccccc21 (stereo in doubt) [Compound 1-13, (3-{2-[((R)-Acetyl-indan-1-yl-amino)-methyl]-4-trifluoromethyl-phenoxy}-phenyl)-acetic acid]",< 300
4,"CCN(Cc1cc(Br)ccc1Oc1cc(CC(=O)O)ccc1OC)C(=O)OC [Compound 1-10, (3-{4-Bromo-2-[(ethyl-methoxycarbonyl-amino)-methyl]-phenoxy}-4-methoxy-phenyl)-acetic acid]",< 300
5,"COC(=O)N(Cc1ccccc1)Cc1cc(Br)ccc1Oc1cccc(CC(=O)O)c1 [Compound 1-3, (3-{2-[(Benzyl-methoxycarbonyl-amino)-methyl]-4-bromo-phenoxy}-phenyl)-acetic acid]",< 300
6,"CCN(Cc1cc(NC(=O)C(C)(C)C)ccc1Oc1cc(CC(=O)O)ccc1OC)C(C)=O [Compound 1-45, {3-[2-[(Acetyl-ethyl-amino)-methyl]-4-(2,2-dimethyl-propionylamino)-phenoxy]-4-methoxy-phenyl}-acetic acid]",< 300
7,"CCN(Cc1cc(C(F)(F)F)ccc1Oc1cccc(CC(=O)O)c1)C(=O)Cc1ccccc1 [Compound 1-18, (3-{2-[(Ethyl-phenylacetyl-amino)-methyl]-4-trifluoromethyl-phenoxy}-phenyl)-acetic acid]",> 300
8,"COC(=O)N(Cc1cc(N(C)S(C)(=O)=O)ccc1Oc1cccc(CC(=O)O)c1)[C@@H](C)Cc1ccccc1 [Compound 1-42, [3-(4-(Methanesulfonyl-methyl-amino)-2-{[methoxycarbonyl-((S)-1-methyl-2-phenyl-ethyl)-amino]-methyl}-phenoxy)-phenyl]-acetic acid]",> 300
9,"CCN(Cc1cc(NC(=O)c2ccc(Cl)cc2)ccc1Oc1cc(CC(=O)O)ccc1OC)C(C)=O [Compound 1-46, {3-[2-[(Acetyl-ethyl-amino)-methyl]-4-(4-chloro-benzoylamino)-phenoxy]-4-methoxy-phenyl}-acetic acid]",< 300

# Second part, the molecule after the results:
row,IC50 [nM],SMILES
1,> 300,"COc1ccc(S(=O)(=O)N(C)Cc2cc(C(F)(F)F)ccc2Oc2cccc(CC(=O)O)c2)cc1 [Compound 1-25, [3-(2-{[(4-Methoxy-benzenesulfonyl)-methyl-amino]-methyl}-4-trifluoromethyl-phenoxy)-phenyl]-acetic acid]"
2,< 300,"CCN(Cc1cc(C(F)(F)F)ccc1Oc1cccc(CC(=O)O)c1)S(=O)(=O)c1ccc(C(C)=O)cc1 [Compound 1-29, [3-(2-{[(4-Acetyl-benzenesulfonyl)-ethyl-amino]-methyl}-4-trifluoromethyl-phenoxy)-phenyl]-acetic acid]"
3,> 300,"CCN(Cc1cc(C(F)(F)F)ccc1Oc1cccc(CC(=O)O)c1)S(=O)(=O)c1ccc(S(C)(=O)=O)cc1 [Compound 1-28, [3-(2-{[Ethyl-(4-methanesulfonyl-benzenesulfonyl)-amino]-methyl}-4-trifluoromethyl-phenoxy)-phenyl]-acetic acid]"
4,< 300,"O=C(O)Cc1cccc(Oc2ccc(C(F)(F)F)cc2CNS(=O)(=O)c2ccc(Cl)cc2)c1 [Compound 1-22, (3-{2-[(4-Chloro-benzenesulfonylamino)-methyl]-4-trifluoromethyl-phenoxy}-phenyl)-acetic acid]"
